Test: Storage stability of DHAA in oxidized zucchini puree product, DHAA concentration by TCEP differential absorbance method
Type: physicochemical
Description: Four zucchini fruits about 6-8 inches long were purchased at a local grocery store. The shelf labeling indicated the fruits were a product of Mexico, as might be expected in Utah during the month of November when this experiment was conducted. Thus the fruit was not locally-grown and probably older (stored longer since picked) than known fresh-picked fruit. It is known that the AAO activity of zucchini fruit decreases during storage after being picked. The epicarp and outer portions of the mesocarp were peeled from the fruits, to the extent that approximately one-half of the weight of each fruit was included in the peelings. 300 grams of peelings were added to a blender with 100 grams purified water and pureed. 20 grams of the puree was removed and reserved for a “blank”. To the remaining puree (380 grams) was added 1.4 grams AA (as pure crystals approximately US mesh size 20-40) and the puree was mixed in the blender about 1 minute. The pH of the puree was measured and found to be 5.2, and a redox test indicated AA reducing activity in the puree. The puree was allowed to stand with periodic brief mixing for 35 minutes. […] A 20 gram portion was removed for a “test.” The blank and test solutions were centrifuged to remove the pulp so that pulp-free solutions could be spectrophotometrically analyzed. 25 uL of each of these solutions were diluted in 10 mL of 0.15 M phosphoric acid diluent, and the absorbance of each was determined using a UV spectrometer at 262 nm wavelength blanked against diluent. 2 mL of each dilution were combined with 2 mL of a TCEP reagent, incubated one hour, and then the absorbance at 262 nm of these solutions were determined as above (TCEP reagent reduces DHAA in the solution to AA; absorbance measurements at wavelengths where AA strongly absorbs, before and after treatment with TCEP, is a method known to practitioners in the art to quantify DHAA concentration by the differential absorption principle). The following absorption values were obtained (TCEP values are corrected for the X2 dilution):
One whole zucchini fruit weighing 235 grams was pureed in 120 mL water in a blender. The pH of the initial zucchini puree was 6.5. At time 0 minutes, 1.0 gram crystalline AA was added. After mixing 30 seconds, the pH was 5.0. At the times indicated in the table below, pH was recorded, iodine indicator redox result was recorded, and/or additional AA in the amounts indicated were added after testing the pH and redox status. The zucchini puree was continuously mixed in the blender during the entire time, and a cap in the top of the blender was left open to allow fresh air to be drawn into the vortex of the puree in the blender.
The product was split into three equal parts. Part 1 was kept in a closed container at room temperature. Part 2 was kept in a closed container at standard refrigerator temperature of 4 degrees C. Part 3 was kept in a closed container at common freezer temperature of minus 20 degrees C. Part 1 was tested immediately for DHAA concentration by the TCEP method previously discussed, and then after overnight storage (approx. 12 hours); Part 2 was tested after overnight storage (approx. 12 hours), and then after 13 days; Part 3 was tested after 13 days. Recovery column is the actual concentration divided by the maximum expected DHAA concentration of 2.4%, expressed as percent.

**Q.** For `O=C1O[C@H]([C@@H](O)CO)C(=O)C1=O` [DHAA, dehydroascorbic acid], which “DHAA Concentration” value (Example 3 product, Part 1, tested immediately, storage 0 hours) is on record?
**A.** The value was 2.27%.

**Q.** What about the “DHAA Concentration” value (Part 1, closed container, room temperature, 12 hours) of the same compound?
**A.** Its value is 1.68%.

**Q.** And the “DHAA Concentration” value (Part 2, refrigerator 4 degrees C, 12 hours)?
**A.** Its value is 2.14%.

**Q.** And the “DHAA Concentration” value (Part 2, refrigerator 4 degrees C, 312 hours (13 d))?
**A.** Its value is 1.27%.

**Q.** And the “DHAA Concentration” value (Part 3, freezer minus 20 degrees C, 312 hours (13 d))?
**A.** The value was 2.10%.

**Q.** What about the “Loss of DHAA on frozen storage” value (product stored frozen for at least 13 days) of the same compound?
**A.** The value was “minimal loss”.

— patent publication US20150368681A1, “Dehydroascorbic Acid Process” (priority 2014, published 2015)
